Converted amounts (≈) assume the structure as drawn.
Tests used:
P388 = assay: In vivo antitumor activity against mouse P388 cells in mouse at 100 mg/kg relative to control; type: functional
KB = assay: Cytotoxicity against human KB cells; type: functional; conditions: read-out: ED50 (the source's name)

COc1cc2cc(c1Cl)NC(=O)C[C@H](OC(=O)[C@H](C)N(C)C(C)=O)[C@]1(C)O[C@H]1[C@H](C)[C@@H]1C[C@@](O)(NC(=O)O1)[C@H](OC)/C=C/C=C(\C)C2 [NORMAYTANSINE]
T/C (P388): 181%
EC50 (KB): 1 ng/mL (≈ 1.47 nM)

— ChEMBL document CHEMBL1151353, “Normaytansine, a new antileukemic ansa macrolide from Maytenus buchananii” (1980)
